Experimental data as given in patent US20250339569A1, “CARBONIC ANHYDRASE IX LIGANDS” (priority 2021, published 2025).
Starred links: 1 amine or outer side, 2 acyl side, 3 side chain; linkers in the order of their positions; H or OH if unused. Positions of bridges follow the written chain, without caps; N, C: chain ends. Non-standard residues stand in square brackets, D forms with d. Residues, ends and D or L forms follow the SMILES beside them. *: point of attachment. NH(CH2)3NH(O2Oc(DOTA)) = O=C(O)CN1CCN(CC(=O)O)CCN(CC(=O)NCCOCCOCC(=O)NCCCN*)CCN(CC(=O)O)CC1; Phe(3-NHCO(CH2)3SO2NH2) = N[C@@H](Cc1cccc(NC(=O)CCCS(N)(=O)=O)c1)C(=O)O; DOTA = O=C(O)CN1CCN(CC(=O)O)CCN(CC(=O)*)CCN(CC(=O)O)CC1; X54 = O=C(Nc1cccc(C[C@H](N[*:1])C(=O)[*:2])c1)c1cnco1; Phe(4-NH2) = Nc1ccc(C[C@H](N)C(=O)O)cc1; mXylylene = c1cc(C[*:1])cc(C[*:2])c1; X2 = O=C(CN1CCC(N[*:1])CC1)[*:2]; X52 = NS(=O)(=O)c1cnn(CC(=O)*)c1; X60 = NC(=O)c1ccc(N2CC(N*)C2)cc1; tBuAla = CC(C)(C)C[C@H](N)C(=O)O; X1 = O=C(CN1CCN([*:1])CC1)[*:2]; 4Amb = NCc1ccc(C(=O)O)cc1; Isovaleryl = CC(C)CC(=O)*; X64 = c1cc2cc(CN*)ccc2cn1; Dab = NCC[C@H](N)C(=O)O

These compounds were tested against T1, CAIX-expressing human HT-29 colorectal cancer cells (Homo sapiens, UniProt Q16790) (assay: FACS binding assay (IC50 determination, competition with tracer 3BP-2776 or 3BP-4149)). Conditions: FACS binding assay, HT-29 cells, competition with tracer 3BP-2776 (10 nM, biotin-labeled), 4° C., 1 hour; read-out: pIC50 category (activity) (converted).
T1 construct: CAIX-expressing human HT-29 colorectal cancer cells; host or cells: HT-29 human colorectal cancer cells
In short: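 HT-29 cells in FACS buffer (PBS, 1% FCS) at 500.000 cells/ml were exposed to compounds competing with a labelled tracer, with biotinylated compounds detected by 1 μg/mL APC-streptavidin for 30 min on ice. APC/Cy5 median fluorescence was read by flow cytometry and IC50 derived by 4PL fit.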

| IC50 [nM] | Compound |
| --- | --- |
| 10 to 79.4 | CC(=O)N[C@H](C(=O)N[C@@H](Cc1ccc(O)cc1)C(=O)N[C@H]1CSCc2cccc(c2)CSC[C@@H](C(N)=O)NC(=O)[C@H](CO)NC(=O)[C@H](Cc2c[nH]c3ccccc23)NC(=O)[C@@H]2CCC(=O)NCC[C@H](NC(=O)[C@H]3CCCN3C(=O)[C@H](CCC(=O)O)NC1=O)C(=O)N[C@@H](Cc1c[nH]c3ccccc13)C(=O)N[C@@H](CC(C)C)C(=O)N2)C(C)C [3BP-3960] (Ac-VYCE[dP][Dab]WLEWSC-NH2; linker 3-12 via mXylylene; lactam 6-9) |
| < 10 | C[C@@H](O)[C@@H]1NC(=O)[C@H](CC(C)(C)C)NC(=O)[C@H](Cc2cccc(NC(=O)CCCS(N)(=O)=O)c2)NC(=O)[C@H](CC(=O)O)NC(=O)[C@H]2CCCN2C(=O)[C@H](CCC(=O)O)NC(=O)[C@@H](NC(=O)[C@H](Cc2ccc(O)cc2)NC(=O)CN2CCN(C(=O)CN3CCN(CC(=O)O)CCN(CC(=O)O)CCN(CC(=O)O)CC3)CC2)CSCc2cccc(c2)CSC[C@@H](C(N)=O)NC(=O)[C@H](CO)NC(=O)[C@H](Cc2c[nH]c3ccccc23)NC1=O [3BP-4449] ({DOTA}-[X1]YCE[dP]D[Phe(3-NHCO(CH2)3SO2NH2)][tBuAla]TWSC-NH2; linker 3-12 via mXylylene) |
| 10 to 79.4 | CC(C)C[C@@H]1NC(=O)[C@H](Cc2cccc(NC(=O)c3cnco3)c2)NC(=O)[C@H](CC(=O)O)NC(=O)[C@H]2CCCN2C(=O)[C@H](CCC(=O)O)NC(=O)[C@@H](NC(=O)[C@H](Cc2ccc(O)cc2)NC(=O)[C@@H](NC(=O)CN2CCC(NC(=O)CN3CCN(CC(=O)O)CCN(CC(=O)O)CCN(CC(=O)O)CC3)CC2)C(C)C)CSCc2cccc(c2)CSC[C@@H](C(N)=O)NC(=O)[C@H](CO)NC(=O)[C@H](Cc2c[nH]c3ccccc23)NC(=O)[C@H]([C@@H](C)O)NC1=O [3BP-4239] ({DOTA}-[X2]VYCE[dP]D[X54]LTWSC-NH2; linker 4-13 via mXylylene) |

Same assay, conditions: FACS binding assay, HT-29 cells, competition with tracer 3BP-4149 (3 nM, Cy5-labeled), 4° C., 1 hour; read-out: pIC50 category (activity) (converted)

| IC50 [nM] | Compound |
| --- | --- |
| 10 to 79.4 | CC(C)C[C@@H]1NC(=O)[C@H](Cc2c[nH]c3ccccc23)NC(=O)[C@H](CCC(=O)NC2CN(c3ccc(C(N)=O)cc3)C2)NC(=O)[C@H]2CCCN2C(=O)[C@H](CCC(=O)O)NC(=O)[C@@H](NC(=O)[C@H](Cc2ccc(O)cc2)NC(=O)[C@@H](NC(=O)CN2CCC(NC(=O)CN3CCN(CC(=O)O)CCN(CC(=O)O)CCN(CC(=O)O)CC3)CC2)C(C)C)CSCc2cccc(c2)CSC[C@@H](C(N)=O)NC(=O)[C@H](CO)NC(=O)[C@H](Cc2c[nH]c3ccccc23)NC(=O)[C@H]([C@@H](C)O)NC1=O [3BP-4388] ({DOTA}-[X2]VYCE[dP]E(X60)WLTWSC-NH2; linker 4-13 via mXylylene) |
| 100 to 794 | CC(C)C[C@@H]1NC(=O)[C@H](Cc2ccc(NC(=O)Cn3cc(S(N)(=O)=O)cn3)cc2)NC(=O)[C@H](CC(=O)O)NC(=O)[C@H]2CCCN2C(=O)[C@H](CCC(=O)O)NC(=O)[C@@H](NC(=O)[C@H](CCC(N)=O)NC(=O)CN2CCN(C(=O)CN3CCN(CC(=O)O)CCN(CC(=O)O)CCN(CC(=O)O)CC3)CC2)CSCc2cccc(c2)CSC[C@@H](C(N)=O)NC(=O)[C@H](CO)NC(=O)[C@H](Cc2c[nH]c3ccccc23)NC(=O)[C@H]([C@@H](C)O)NC1=O [3BP-4482] ({DOTA}-[X1]QCE[dP]D[Phe(4-NH2)](X52)LTWSC-NH2; linker 3-12 via mXylylene) |
| 100 to 794 | CC(C)C[C@@H]1NC(=O)[C@H](Cc2c[nH]c3ccccc23)NC(=O)[C@H](CCC(=O)NCc2ccc3cnccc3c2)NC(=O)[C@H]2CCCN2C(=O)[C@H](CCC(=O)O)NC(=O)[C@@H](NC(=O)[C@H](Cc2ccc(O)cc2)NC(=O)[C@@H](NC(=O)CN2CCC(NC(=O)CN3CCN(CC(=O)O)CCN(CC(=O)O)CCN(CC(=O)O)CC3)CC2)C(C)C)CSCc2cccc(c2)CSC[C@@H](C(N)=O)NC(=O)[C@H](CO)NC(=O)[C@H](Cc2c[nH]c3ccccc23)NC(=O)[C@H]([C@@H](C)O)NC1=O [3BP-4328] ({DOTA}-[X2]VYCE[dP]E(X64)WLTWSC-NH2; linker 4-13 via mXylylene) |

Same assay, conditions: FACS competition on HT-29 cells, Tracer ID 3BP-2776 (10 nM, biotin-labeled), 4° C., 1 hour; read-out: pIC50 category (activity) (converted)

| Compound | IC50 [nM] |
| --- | --- |
| CC(C)CC(=O)N[C@@H](CCCNC(=N)N)C(=O)N[C@H]1CSCc2cccc(c2)CSC[C@@H](C(N)=O)NC(=O)[C@H](CCC(=O)NCCCNC(=O)COCCOCCNC(=O)CN2CCN(CC(=O)O)CCN(CC(=O)O)CCN(CC(=O)O)CC2)NC(=O)[C@H](Cc2c[nH]c3ccccc23)NC(=O)[C@H]([C@@H](C)O)NC(=O)[C@H](CC(C)C)NC(=O)[C@H](Cc2c[nH]c3ccccc23)NC(=O)[C@H](CC(=O)O)NC(=O)[C@H]2CCCN2C(=O)[C@H](CCC(=O)O)NC1=O [3BP-3741] (Isovaleryl-RCE[dP]DWLTWE(NH(CH2)3NH(O2Oc(DOTA)))C-NH2; linker 2-11 via mXylylene) | 10 to 79.4 |
| CC(C)C[C@@H]1NC(=O)[C@H](Cc2c[nH]c3ccccc23)NC(=O)[C@H](CC(=O)O)NC(=O)[C@H]2CCCN2C(=O)[C@H](CCC(=O)O)NC(=O)[C@@H](NC(=O)[C@H](Cc2ccc(O)cc2)NC(=O)[C@@H](NC(=O)CN2CCC(NC(=O)CN3CCN(CC(=O)O)CCN(CC(=O)O)CCN(CC(=O)O)CC3)CC2)C(C)C)CSCc2cccc(c2)CSC[C@@H](C(N)=O)NC(=O)[C@H](CO)NC(=O)[C@H](Cc2c[nH]c3ccccc23)NC(=O)[C@H](Cc2c[nH]cn2)NC1=O [3BP-3597] ({DOTA}-[X2]VYCE[dP]DWLHWSC-NH2; linker 4-13 via mXylylene) | < 10 |

The next lines start with the values.

| IC50 [nM] | Compound |
| --- | --- |
| < 10 | CC(=O)N[C@H](C(=O)N[C@@H](Cc1ccc(O)cc1)C(=O)N[C@H]1CSCc2cccc(c2)CSC[C@@H](C(=O)NCc2ccc(C(=O)N[C@@H](CCCCNC(=O)CN3CCN(CC(=O)O)CCN(CC(=O)O)CCN(CC(=O)O)CC3)C(N)=O)cc2)NC(=O)[C@H](C)NC(=O)[C@H](Cc2c[nH]c3ccccc23)NC(=O)[C@H]([C@@H](C)O)NC(=O)[C@H](CC(C)C)NC(=O)[C@H](Cc2c[nH]c3ccccc23)NC(=O)[C@H](CC(=O)O)NC(=O)[C@H]2CCCN2C(=O)[C@H](CCC(=O)O)NC1=O)C(C)C [3BP-3477] (Ac-VYCE[dP]DWLTWAC[4Amb]K(DOTA)-NH2; linker 3-12 via mXylylene) |
| < 10 | CC(=O)N[C@H](C(=O)N[C@@H](Cc1ccc(O)cc1)C(=O)N[C@H]1CSCc2cccc(c2)CSC[C@@H](C(N)=O)NC(=O)[C@H](CCC(N)=O)NC(=O)[C@H](Cc2c[nH]c3ccccc23)NC(=O)[C@H]([C@@H](C)O)NC(=O)[C@H](CC(C)C)NC(=O)[C@H](Cc2c[nH]c3ccccc23)NC(=O)[C@H](CC(=O)O)NC(=O)CNC(=O)[C@H](C)NC1=O)C(C)C [3BP-3052] (Ac-VYCAGDWLTWQC-NH2; linker 3-12 via mXylylene) |
| < 10 | CC(=O)N[C@H](C(=O)N[C@@H](Cc1ccccc1)C(=O)N[C@H]1CSCc2cccc(c2)CSC[C@@H](C(N)=O)NC(=O)[C@H](CO)NC(=O)[C@H](Cc2c[nH]c3ccccc23)NC(=O)[C@H]([C@@H](C)O)NC(=O)[C@H](CC(C)C)NC(=O)[C@H](Cc2c[nH]c3ccccc23)NC(=O)[C@H](CC(=O)O)NC(=O)[C@H]2CCCN2C(=O)[C@H](CCC(=O)O)NC1=O)C(C)C [3BP-3570] (Ac-VFCE[dP]DWLTWSC-NH2; linker 3-12 via mXylylene) |
| 100 to 794 | CC(=O)N[C@H](C(=O)N[C@@H](Cc1ccc(O)cc1)C(=O)N[C@H]1CSCc2cccc(c2)CSC[C@@H](C(N)=O)NC(=O)[C@H](CCC(N)=O)NC(=O)[C@H](Cc2c[nH]c3ccccc23)NC(=O)[C@@H]([C@H](C)O)NC(=O)[C@H](CC(C)C)NC(=O)[C@H](Cc2c[nH]c3ccccc23)NC(=O)[C@H](CC(=O)O)NC(=O)CNC(=O)[C@H](CCC(=O)O)NC1=O)C(C)C [3BP-3049] (Ac-VYCEGDWL[dT]WQC-NH2; linker 3-12 via mXylylene) |
